{"source": "the supplement of paper PMC10307832", "test_in_all_cases": "relative viability (nuclei count vs DMSO), 5 days (fraction); higher = more cells survive", "key": {"CAL-12T": {"tested_on": "CAL-12T", "how_it_was_run": "(§1)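 Lung cancer cell lines were seeded in 1536-well plates and dosed by pin tool the next day, with either a single drug or a fixed anchor-drug dose combined with five library-drug doses (not always all listed) spaced in √10 steps. Five days later, one step fixed the cells and stained their nuclei (final 0.05% Triton X-100, 1% formaldehyde, 1 ug/ml Hoechst), and nuclei were counted on 4× images. Relative viability is the nuclei count in treated wells divided by the count in vehicle wells, and each value is the median of duplicate plates.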"}, "LCLC-97TM1": {"tested_on": "LCLC-97TM1", "how_it_was_run": "as §1"}, "BEN": {"tested_on": "BEN", "how_it_was_run": "as §1"}, "NCI-H2087": {"tested_on": "NCI-H2087", "how_it_was_run": "as §1"}, "PC-3 [JPC-3]": {"tested_on": "PC-3 [JPC-3]", "how_it_was_run": "as §1"}, "HCC-15": {"tested_on": "HCC-15", "how_it_was_run": "as §1"}, "NCI-H727": {"tested_on": "NCI-H727", "how_it_was_run": "as §1"}, "NCI-H650": {"tested_on": "NCI-H650", "how_it_was_run": "as §1"}, "NCI-H1915": {"tested_on": "NCI-H1915", "how_it_was_run": "as §1"}, "LC-2-ad": {"tested_on": "LC-2-ad", "how_it_was_run": "as §1"}, "NCI-H1944": {"tested_on": "NCI-H1944", "how_it_was_run": "as §1"}, "H3255": {"tested_on": "H3255", "how_it_was_run": "as §1"}, "NCI-H460": {"tested_on": "NCI-H460", "how_it_was_run": "as §1"}, "NCI-H596": {"tested_on": "NCI-H596", "how_it_was_run": "as §1"}, "NCI-H1651": {"tested_on": "NCI-H1651", "how_it_was_run": "as §1"}, "A-427": {"tested_on": "A-427", "how_it_was_run": "as §1"}, "NCI-H441": {"tested_on": "NCI-H441", "how_it_was_run": "as §1"}, "NCI-H1792": {"tested_on": "NCI-H1792", "how_it_was_run": "as §1"}, "ABC-1": {"tested_on": "ABC-1", "how_it_was_run": "as §1"}, "201T": {"tested_on": "201T", "how_it_was_run": "as §1"}}}
{"compound": "COc1cc(N2CCC(C(N)=O)CC2)ccc1Nc1nc(N)c(Cl)c(Nc2ccccc2S(=O)(=O)C(C)C)n1", "note": "[HG-5-88-01] + NC(=O)Nc1cc(-c2cccc(F)c2)sc1C(=O)N[C@H]1CCCNC1 [AZD7762] (partner 0.2 µM)", "values": [{"measurement": "relative viability", "setting": "CAL-12T; first compound 0.04 µM", "value": 0.71}, {"measurement": "relative viability", "setting": "CAL-12T; first compound 0.1265 µM", "value": 0.607}, {"measurement": "relative viability", "setting": "CAL-12T; first compound 0.4 µM", "value": 0.501}, {"measurement": "relative viability", "setting": "CAL-12T; first compound 1.265 µM", "value": 0.539}, {"measurement": "relative viability", "setting": "CAL-12T; first compound 4 µM", "value": 0.399}, {"measurement": "relative viability", "setting": "LCLC-97TM1; first compound 0.04 µM", "value": 0.251}, {"measurement": "relative viability", "setting": "LCLC-97TM1; first compound 0.1265 µM", "value": 0.262}, {"measurement": "relative viability", "setting": "LCLC-97TM1; first compound 0.4 µM", "value": 0.231}, {"measurement": "relative viability", "setting": "LCLC-97TM1; first compound 1.265 µM", "value": 0.225}, {"measurement": "relative viability", "setting": "LCLC-97TM1; first compound 4 µM", "value": 0.0952}, {"measurement": "relative viability", "setting": "BEN; first compound 0.04 µM", "value": 0.47}, {"measurement": "relative viability", "setting": "BEN; first compound 0.1265 µM", "value": 0.69}, {"measurement": "relative viability", "setting": "BEN; first compound 0.4 µM", "value": 0.635}, {"measurement": "relative viability", "setting": "BEN; first compound 1.265 µM", "value": 0.615}, {"measurement": "relative viability", "setting": "BEN; first compound 4 µM", "value": 0.576}, {"measurement": "relative viability", "setting": "NCI-H2087; first compound 0.04 µM", "value": 1.23}, {"measurement": "relative viability", "setting": "NCI-H2087; first compound 0.1265 µM", "value": 1.26}, {"measurement": "relative viability", "setting": "NCI-H2087; first compound 0.4 µM", "value": 1.45}, {"measurement": "relative viability", "setting": "NCI-H2087; first compound 1.265 µM", "value": 1.14}, {"measurement": "relative viability", "setting": "NCI-H2087; first compound 4 µM", "value": 1.17}, {"measurement": "relative viability", "setting": "PC-3 [JPC-3]; first compound 0.04 µM", "value": 0.863}, {"measurement": "relative viability", "setting": "PC-3 [JPC-3]; first compound 0.1265 µM", "value": 0.703}, {"measurement": "relative viability", "setting": "PC-3 [JPC-3]; first compound 0.4 µM", "value": 0.732}, {"measurement": "relative viability", "setting": "PC-3 [JPC-3]; first compound 1.265 µM", "value": 0.713}, {"measurement": "relative viability", "setting": "PC-3 [JPC-3]; first compound 4 µM", "value": 0.344}, {"measurement": "relative viability", "setting": "HCC-15; first compound 0.04 µM", "value": 1.27}, {"measurement": "relative viability", "setting": "HCC-15; first compound 0.1265 µM", "value": 0.595}, {"measurement": "relative viability", "setting": "HCC-15; first compound 0.4 µM", "value": 1.15}, {"measurement": "relative viability", "setting": "HCC-15; first compound 1.265 µM", "value": 1.3}, {"measurement": "relative viability", "setting": "HCC-15; first compound 4 µM", "value": 1.04}, {"measurement": "relative viability", "setting": "NCI-H727; first compound 0.04 µM", "value": 0.729}, {"measurement": "relative viability", "setting": "NCI-H727; first compound 0.1265 µM", "value": 0.633}, {"measurement": "relative viability", "setting": "NCI-H727; first compound 0.4 µM", "value": 0.597}, {"measurement": "relative viability", "setting": "NCI-H727; first compound 4 µM", "value": 0.377}, {"measurement": "relative viability", "setting": "NCI-H650; first compound 0.04 µM", "value": 1.04}, {"measurement": "relative viability", "setting": "NCI-H650; first compound 0.1265 µM", "value": 1.07}, {"measurement": "relative viability", "setting": "NCI-H650; first compound 0.4 µM", "value": 0.901}, {"measurement": "relative viability", "setting": "NCI-H650; first compound 1.265 µM", "value": 1.01}, {"measurement": "relative viability", "setting": "NCI-H650; first compound 4 µM", "value": 0.683}, {"measurement": "relative viability", "setting": "NCI-H1915; first compound 0.04 µM", "value": 0.69}, {"measurement": "relative viability", "setting": "NCI-H1915; first compound 0.1265 µM", "value": 0.697}, {"measurement": "relative viability", "setting": "NCI-H1915; first compound 0.4 µM", "value": 0.689}, {"measurement": "relative viability", "setting": "NCI-H1915; first compound 1.265 µM", "value": 0.741}, {"measurement": "relative viability", "setting": "NCI-H1915; first compound 4 µM", "value": 0.463}, {"measurement": "relative viability", "setting": "LC-2-ad; first compound 0.04 µM", "value": 0.888}, {"measurement": "relative viability", "setting": "LC-2-ad; first compound 0.1265 µM", "value": 0.76}, {"measurement": "relative viability", "setting": "LC-2-ad; first compound 0.4 µM", "value": 0.787}, {"measurement": "relative viability", "setting": "LC-2-ad; first compound 1.265 µM", "value": 0.857}, {"measurement": "relative viability", "setting": "LC-2-ad; first compound 4 µM", "value": 0.87}, {"measurement": "relative viability", "setting": "NCI-H1944; first compound 0.04 µM", "value": 0.586}, {"measurement": "relative viability", "setting": "NCI-H1944; first compound 0.1265 µM", "value": 0.503}, {"measurement": "relative viability", "setting": "NCI-H1944; first compound 0.4 µM", "value": 0.434}, {"measurement": "relative viability", "setting": "NCI-H1944; first compound 1.265 µM", "value": 0.514}, {"measurement": "relative viability", "setting": "NCI-H1944; first compound 4 µM", "value": 0.469}, {"measurement": "relative viability", "setting": "H3255; first compound 0.04 µM", "value": 1.16}, {"measurement": "relative viability", "setting": "H3255; first compound 0.1265 µM", "value": 1.01}, {"measurement": "relative viability", "setting": "H3255; first compound 0.4 µM", "value": 0.916}, {"measurement": "relative viability", "setting": "H3255; first compound 4 µM", "value": 0.699}, {"measurement": "relative viability", "setting": "NCI-H460; first compound 0.04 µM", "value": 0.7}, {"measurement": "relative viability", "setting": "NCI-H460; first compound 0.1265 µM", "value": 0.63}, {"measurement": "relative viability", "setting": "NCI-H460; first compound 0.4 µM", "value": 0.561}, {"measurement": "relative viability", "setting": "NCI-H460; first compound 1.265 µM", "value": 0.611}, {"measurement": "relative viability", "setting": "NCI-H460; first compound 4 µM", "value": 0.592}, {"measurement": "relative viability", "setting": "NCI-H596; first compound 0.04 µM", "value": 1.05}, {"measurement": "relative viability", "setting": "NCI-H596; first compound 0.1265 µM", "value": 1.07}, {"measurement": "relative viability", "setting": "NCI-H596; first compound 0.4 µM", "value": 1.04}, {"measurement": "relative viability", "setting": "NCI-H596; first compound 1.265 µM", "value": 1.06}, {"measurement": "relative viability", "setting": "NCI-H596; first compound 4 µM", "value": 0.697}, {"measurement": "relative viability", "setting": "NCI-H1651; first compound 0.04 µM", "value": 0.463}, {"measurement": "relative viability", "setting": "NCI-H1651; first compound 0.1265 µM", "value": 0.447}, {"measurement": "relative viability", "setting": "NCI-H1651; first compound 0.4 µM", "value": 0.439}, {"measurement": "relative viability", "setting": "NCI-H1651; first compound 1.265 µM", "value": 0.342}, {"measurement": "relative viability", "setting": "NCI-H1651; first compound 4 µM", "value": 0.321}, {"measurement": "relative viability", "setting": "A-427; first compound 0.04 µM", "value": 0.67}, {"measurement": "relative viability", "setting": "A-427; first compound 0.1265 µM", "value": 0.776}, {"measurement": "relative viability", "setting": "A-427; first compound 0.4 µM", "value": 0.744}, {"measurement": "relative viability", "setting": "A-427; first compound 1.265 µM", "value": 0.656}, {"measurement": "relative viability", "setting": "A-427; first compound 4 µM", "value": 0.679}, {"measurement": "relative viability", "setting": "NCI-H441; first compound 0.04 µM", "value": 0.964}, {"measurement": "relative viability", "setting": "NCI-H441; first compound 0.1265 µM", "value": 0.931}, {"measurement": "relative viability", "setting": "NCI-H441; first compound 0.4 µM", "value": 1.19}, {"measurement": "relative viability", "setting": "NCI-H441; first compound 1.265 µM", "value": 1.08}, {"measurement": "relative viability", "setting": "NCI-H441; first compound 4 µM", "value": 0.998}, {"measurement": "relative viability", "setting": "NCI-H1792; first compound 0.04 µM", "value": 0.752}, {"measurement": "relative viability", "setting": "NCI-H1792; first compound 0.1265 µM", "value": 0.648}, {"measurement": "relative viability", "setting": "NCI-H1792; first compound 0.4 µM", "value": 0.645}, {"measurement": "relative viability", "setting": "NCI-H1792; first compound 1.265 µM", "value": 0.581}, {"measurement": "relative viability", "setting": "NCI-H1792; first compound 4 µM", "value": 0.557}, {"measurement": "relative viability", "setting": "ABC-1; first compound 0.04 µM", "value": 0.663}, {"measurement": "relative viability", "setting": "ABC-1; first compound 0.1265 µM", "value": 0.63}, {"measurement": "relative viability", "setting": "ABC-1; first compound 0.4 µM", "value": 0.645}, {"measurement": "relative viability", "setting": "ABC-1; first compound 1.265 µM", "value": 0.688}, {"measurement": "relative viability", "setting": "ABC-1; first compound 4 µM", "value": 0.657}, {"measurement": "relative viability", "setting": "201T; first compound 0.04 µM", "value": 0.54}, {"measurement": "relative viability", "setting": "201T; first compound 0.1265 µM", "value": 0.62}, {"measurement": "relative viability", "setting": "201T; first compound 1.265 µM", "value": 0.631}, {"measurement": "relative viability", "setting": "201T; first compound 4 µM", "value": 0.374}]}
